Assay results taken from PubChem BioAssay AID2060603 (Molecular Pharmacology Branch, DTP, NCI, 2025).
“And” between values parts separate entries of the source, which are not always exact repeats. Equal entries are not always repeated. One block for each compound: values may come before it.

System: 422866-222-R5-J1-PDC spheroid viability
Assay: Anticancer human tumor 422866-222-R5-J1-PDC patient-derived pancreatic adenocarcinoma cell line growth inhibition [CLK]
Settings: spheroids with HUVEC and MSC; for viability, T/C: stronger effect = lower value
Source text: A high-throughput screen of multi-cell type tumor spheroids was designed to identify active combinations of […] and targeted small molecules. Complex spheroids include a stromal component modeled by human endothelial cells (HUVEC) and fibroblasts modeled by human mesenchymal stem cells (MSCs). The concentration ranges selected for each drug and investigational agent were based upon clinically achievable concentrations if the clinical Cmax of the agent was known.
Compounds. The drugs and investigational agents: cirtuvivint (SM08502; NSC835563), CC-671 (NSC850746), vemurafenib (NSC761431), tapotoclax (NSC804041), sotorasib (NSC818433), adagrasib (NSC831453), MRTX-1133 (NSC836407), BAY2416964 (NSC825713), copanlisib (NSC816437), inavolisib (NSC800729), abemaciclib (NSC768073), osimertinib (NSC779217), entinostat (NSC756642), eltanexor (KPT-8602, NSC794443), venetoclax (NSC766270), ceralasertib (NSC777638), bortezomib (NSC756655), olaparib (NSC753686), talazoparib (NSC767125), alisertib (NSC759677), peposertib (NSC802822), gemcitabine (NSC613327), 5-fluorouracil (NSC19893), SN-38 (NSC673596), oxaliplatin (NSC266046), paclitaxel (NSC125973), and doxorubicin (NSC123127), were obtained from the National Cancer Institute (NCI) Developmental Therapeutics Program Chemical Repository. The FDA-approved anticancer drug set is available from the Developmental Therapeutics Program at https://dtp.cancer.gov/organization/dscb/obtaining/available plates.htm. […] The stock solutions were prepared in dimethyl sulfoxide (DMSO, Sigma-Aldrich, St. Louis, MO, cat. D2650), except for the platinum complexes which were prepared in saline (Quality Biological, Gaithersburg, MD, cat. 114-055-101), at 800-fold the tested concentration and stored at -70 degrees C prior to their use. All drugs and investigational agents were tested over a range starting from a high concentration at or near the clinical Cmax and decreasing in half-log increments. If the clinical Cmax for an agent had not been determined, the highest concentration tested was 10 microM.
Cell Culture. All cells were maintained in an incubator at 37 degrees C and 5% CO2 with 95% humidity. The PDC lines were cultured according to standard operating procedures established by the NCI PDMR. Briefly, all PDCs were thawed and cultured in Matrigel-coated flasks prepared with a working solution of 1X Ham's F-12 nutrient mix, without supplementation (Invitrogen, Waltham, MA, cat. 11765054), 100 U/mL penicillin-streptomycin (Invitrogen, cat. 15140122), and 2.5% Matrigel (Corning Inc., Corning, NY, cat. 354248) for the first three passages. The 947758-054-R-J2-PDC line was cultured in 6B/Colon 1A media, which includes advanced DMEM/F-12 (Thermo Fisher Scientific, cat. 12634028), 10 mM HEPES (Thermo Fisher Scientific, cat. 15630080), 1X GlutaMAX supplement (Thermo Fisher Scientific, cat. 35050061), 0.1 mg/mL primocin (InvivoGen, cat. ant-pm-2), 10% defined fetal bovine serum, heat inactivated (HyClone Laboratories Inc., cat. SH30070.03HI), 1.25 mM N-Acetyl-L-cysteine (Sigma-Aldrich, cat. A9165), 10 mM nicotinamide (Sigma-Aldrich, cat. N0636), 1X B-27 supplement (Thermo Fisher Scientific, cat. 17504044), 1X N-2 supplement (Thermo Fisher Scientific, cat. 17502048), and 10 microM Y-27632 dihydrochloride (Tocris Bioscience, cat. 1254). The 876862-298-R-J1-PDC was cultured in 6E media, which includes all 6B/Colon 1A media components plus 50% L-WRN conditioned media (ATCC, cat. CRL-3276), 50 ng/mL recombinant human EGF recombinant protein (hEGF; Thermo Fisher Scientific, cat. PHG0311), 10 ng/mL recombinant human fibroblast growth factor 10 (hGFG-10; PeproTech, cat. 100-26), 1 ng/mL recombinant human fibroblast growth factor 2 (hFGF-2; PeproTech, cat. 100-18B), and 1 µM prostaglandin E2 (PGE2; Tocris, cat. 2296). The 227483-062-R1-J1-PDC line was cultured in Panc media, containing all 6E components except hFGF-2, with the addition of 500 nM SB-431542 (Selleckchem, cat. S1067) and 10 nM gastrin (Tocris, cat. 3006). […]
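Further: spheroids exposed to agents for seven days before readout.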

IC50 (curve of compound): > 10 µM
Compound: CC(=O)O[C@H]1C(=O)[C@@]2(C)[C@H]([C@H](OC(=O)c3ccccc3)[C@]3(O)C[C@H](OC(=O)[C@H](O)[C@@H](NC(=O)c4ccccc4)c4ccccc4)C(C)=C1C3(C)C)[C@]1(OC(C)=O)CO[C@@H]1C[C@@H]2O
viability, T/C (compound 0.0316 µM): 68% and 69.8%
viability, T/C (compound 0.1 µM): 69.3% and 72.6%
viability, T/C (compound 0.316 µM): 63.8% and 66.3%
viability, T/C (compound 1 µM): 68.3% and 75.5%
viability, T/C (compound 3.16 µM): 72.2% and 76%
viability, T/C (compound 10 µM): 85.7% and 81.6%

IC50 (curve of compound): 0.308 µM and 0.113 µM
Compound: CC(Nc1ccc2c(c1)OCCn1cc(N3C(=O)OCC3C(F)F)nc1-2)C(N)=O (stereo not given)
viability, T/C (compound 0.0316 µM): 76.1% and 62.1%
viability, T/C (compound 0.1 µM): 67.9% and 53.8%
viability, T/C (compound 0.316 µM): 46.1% and 36.7%
viability, T/C (compound 1 µM): 42.5% and 38.5%
viability, T/C (compound 3.16 µM): 34.2% and 31.7%
viability, T/C (compound 10 µM): 32% and 27.6%

IC50 (curve of compound): > 10 µM
Compound: CC(CO)NC(=O)c1cc(-c2ccc(Cl)cc2)nn(-c2cnn(C)c2)c1=O (stereo not given)
viability, T/C (compound 0.0316 µM): 93.7% and 89.7%
viability, T/C (compound 0.1 µM): 96.4% and 110%
viability, T/C (compound 0.316 µM): 90.4% and 96.5%
viability, T/C (compound 1 µM): 106% and 108%
viability, T/C (compound 3.16 µM): 96.3% and 107%
viability, T/C (compound 10 µM): 78.1% and 83%

Compound: COc1cccc2c1C(=O)c1c(O)c3c(c(O)c1C2=O)CC(O)(C(=O)CO)CC3OC1CC(N)C(O)C(C)O1 (stereo not given) + CN1CCN(c2cc(C(=O)Nc3cc4cc(-c5cnn(C)c5)ccc4cn3)ccn2)CC1
IC50 (curve of first compound, second compound 0.0316 µM): 0.109 µM
IC50 (curve of first compound, second compound 0.1 µM): 0.174 µM
IC50 (curve of first compound, second compound 0.316 µM): 0.22 µM
IC50 (curve of first compound, second compound 1 µM): < 0.0316 µM
IC50 (curve of first compound, second compound 3.16 µM): < 0.0316 µM
IC50 (curve of first compound, second compound 10 µM): < 0.0316 µM
viability, T/C (second compound 0.0316 µM, first compound 0.0316 µM): 73.1%
viability, T/C (second compound 0.0316 µM, first compound 0.1 µM): 50.2%
viability, T/C (second compound 0.0316 µM, first compound 0.316 µM): 40.9%
viability, T/C (second compound 0.0316 µM, first compound 1 µM): 28.2%
viability, T/C (second compound 0.0316 µM, first compound 3.16 µM): 31%
viability, T/C (second compound 0.0316 µM, first compound 10 µM): 36%
viability, T/C (second compound 0.1 µM, first compound 0.0316 µM): 74%
viability, T/C (second compound 0.1 µM, first compound 0.1 µM): 59.4%
viability, T/C (second compound 0.1 µM, first compound 0.316 µM): 38.5%
viability, T/C (second compound 0.1 µM, first compound 1 µM): 34.3%
viability, T/C (second compound 0.1 µM, first compound 3.16 µM): 39.9%
viability, T/C (second compound 0.1 µM, first compound 10 µM): 47.1%
viability, T/C (second compound 0.316 µM, first compound 0.0316 µM): 73%
viability, T/C (second compound 0.316 µM, first compound 0.1 µM): 67.4%
viability, T/C (second compound 0.316 µM, first compound 0.316 µM): 42.1%
viability, T/C (second compound 0.316 µM, first compound 1 µM): 35.8%
viability, T/C (second compound 0.316 µM, first compound 3.16 µM): 30.7%
viability, T/C (second compound 0.316 µM, first compound 10 µM): 46.5%
viability, T/C (second compound 1 µM, first compound 0.0316 µM): 19.8%
viability, T/C (second compound 1 µM, first compound 0.1 µM): 16.7%
viability, T/C (second compound 1 µM, first compound 0.316 µM): 15.3%
viability, T/C (second compound 1 µM, first compound 1 µM): 20.3%
viability, T/C (second compound 1 µM, first compound 3.16 µM): 38%
viability, T/C (second compound 1 µM, first compound 10 µM): 54.5%
viability, T/C (second compound 3.16 µM, first compound 0.0316 µM): 8.41%
viability, T/C (second compound 3.16 µM, first compound 0.1 µM): 7.95%
viability, T/C (second compound 3.16 µM, first compound 0.316 µM): 11.9%
viability, T/C (second compound 3.16 µM, first compound 1 µM): 22.1%
viability, T/C (second compound 3.16 µM, first compound 3.16 µM): 33.8%
viability, T/C (second compound 3.16 µM, first compound 10 µM): 51%
viability, T/C (second compound 10 µM, first compound 0.0316 µM): 1.49%
viability, T/C (second compound 10 µM, first compound 0.1 µM): 1.52%
viability, T/C (second compound 10 µM, first compound 0.316 µM): 2.85%
viability, T/C (second compound 10 µM, first compound 1 µM): 3.41%
viability, T/C (second compound 10 µM, first compound 3.16 µM): 10.8%
viability, T/C (second compound 10 µM, first compound 10 µM): 13.8%

IC50 (curve of compound): 0.215 µM and 0.113 µM
Compound: COc1cccc2c1C(=O)c1c(O)c3c(c(O)c1C2=O)CC(O)(C(=O)CO)CC3OC1CC(N)C(O)C(C)O1 (stereo not given)
viability, T/C (compound 0.0316 µM): 57.2% and 67.1%
viability, T/C (compound 0.1 µM): 65.7% and 52.3%
viability, T/C (compound 0.316 µM): 44.2% and 30.3%
viability, T/C (compound 1 µM): 32.1% and 27%
viability, T/C (compound 3.16 µM): 28.3% and 26.7%
viability, T/C (compound 10 µM): 30.9% and 26%

IC50 (compound alone, run of 08/14/2023): 650 nM [middle of 12 runs]
Compound: CN1CCN(c2cc(C(=O)Nc3cc4cc(-c5cnn(C)c5)ccc4cn3)ccn2)CC1
viability, T/C (compound 1 µM): 25.8% [middle of 12 runs]
viability, T/C (compound 3.16 µM): 11% [middle of 12 runs]
viability, T/C (compound 10 µM): 2.14% [middle of 12 runs]

IC50 (compound alone, run of 08/15/2023): > 10 µM
Compound: CNC(=O)c1ccc(Nc2nc(OC3CCCC3)c3c(-c4ccc5nc(C)oc5c4)c[nH]c3n2)c(OC)c1
viability, T/C (compound 0.0316 µM): 99.4% [middle of 12 runs]
viability, T/C (compound 0.1 µM): 93.4% [middle of 12 runs]
viability, T/C (compound 0.316 µM): 70.8% [middle of 12 runs]
viability, T/C (compound 1 µM): 68.3% [middle of 12 runs]
viability, T/C (compound 3.16 µM): 74.5% [middle of 12 runs]
